This note sets out measurements from patent publication US5470833A, “Endothelin antagonistic peptide derivatives” (Banyu Pharmaceutical Co., Ltd., priority 1990, dated 1995).

Read-outs that look alike come from different tables or passages of the source.

As usually defined, the inhibition is how much of the control response was suppressed.

Test [1] concerns isolated guinea pig trachea. The test is described as follows: Activities against endothelin-induced contraction of isolated guinea pig trachea. The note with it: 6 μM compound; for shift of the concentration-response curve for endothelin-1: added 20 minutes prior to endothelin-1. The protocol: The trachea of a guinea pig was extracted, and the trachea was cut into rings to afford a preparation.
Endothelin-1 was added into the organ bath in a cumulatively increasing manner, and the influence of a compound of the present invention to the concentration-response curve for endothelin was examined. The compound was added into the organ bath 20 minutes prior to the addition of endothelin-1.

In test [2] the test system is isolated rat heart. The test is described as follows: Effects on the increased perfusion pressure induced by endothelin in isolated rat heart (Langendorff). The protocol:
The heart of a male Sprague Dohrie (SD) rat was extracted, and the perfusion pressure was measured and recorded according to the Langendorff's method.
Endothelin-1 was cumulatively added to the perfusate, whereby the influence of a compound of the present invention to the concentration-response curve for endothelin-1 was examined. The compound which was dissolved in the perfusate had been infused from 20 minutes prior to the addition of endothelin-1 till just after finishing measurement of the concentration-response curve for endothelin-1.

Test [3] has as its target T1, endothelin receptor (membrane of smooth muscle tissue of porcine aorta) (Sus scrofa, UniProt Q29010).
T1 construct: from tissue; host or cells: porcine aorta smooth muscle, membrane fraction
T1 sequence (Q29010 21-427): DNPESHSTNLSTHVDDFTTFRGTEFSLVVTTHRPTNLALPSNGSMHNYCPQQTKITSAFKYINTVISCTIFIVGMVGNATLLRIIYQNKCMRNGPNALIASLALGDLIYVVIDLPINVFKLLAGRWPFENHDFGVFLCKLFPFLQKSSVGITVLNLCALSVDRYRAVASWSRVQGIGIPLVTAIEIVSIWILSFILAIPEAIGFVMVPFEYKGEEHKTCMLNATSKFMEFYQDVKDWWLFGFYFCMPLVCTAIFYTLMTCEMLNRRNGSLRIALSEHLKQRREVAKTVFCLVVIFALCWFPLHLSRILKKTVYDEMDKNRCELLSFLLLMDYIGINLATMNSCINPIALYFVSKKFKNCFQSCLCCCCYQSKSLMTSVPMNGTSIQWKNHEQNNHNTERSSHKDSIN
The test is described as follows: Endothelin binding inhibition test (125I-endothelin-1, porcine aorta smooth muscle membrane). Conditions: read-out: 125I-endothelin-1 binding inhibition. The procedure:
The smooth muscle tissue of porcine aorta was homogenized in a buffer solution of 10 mM MOPS, pH 7.4, at 4° C. by a polytron. To the homogenate, sucrose was added to a concentration of 20%, and the mixture was centrifuged at 1,000×g for 15 minutes, and the supernatant was further centrifuged at 10,000×g for 15 minutes. The supernatant thereof was further centrifuged at 90,000×g for 40 minutes. The membrane precipitate thereby obtained was suspended in a buffer solution of 5 mM HEPES/Tris, pH 7.4, at a concentration of 25 mg/ml.
Then, 16 μl of this membrane suspension was added to 340 μl of 50 mM Tris/HCl buffer, pH 7.4, containing 10 μM calcium chloride, 10 μM magnesium chloride, 0.1 mM PMSF, 1 μM pepstatin A, 2 μM leupeptin, 1 mM 1,10-phenanthroline and 0.1% bovine serum albumin. To this suspension, 4 μl of (A) endothelin-1 (for nonspecific binding; 0.2 μM as the final concentration), (B) buffer solution A (for total control binding), or (C) a test compound (1.1 μM or 10 μM as the final concentration),was added. Further, to each suspension, 40 μl of ^125 I-endothelin-1 (12000-18000 cpm) was added. These mixtures were incubated at 25° C. for 4 hours, then subjected to filtration on a glass filter GF/C and then washed with 5 mM HEPES/Tris, pH 7.4, containing 0.3% bovine serum albumin. Then, the radioactivity trapped by the glass filter was measured, and the ^125 I-endothelin-1 binding inhibition D (%) at 1.1 μM or 10 μM of the test compound was determined by the following equation. [formula] Each test was performed in triplicate.
The test compounds are indicated by Compound Nos.

Test [4] concerns isolated porcine coronary artery. The test is described as follows: Activities against endothelin-induced contraction of isolated porcine coronary arteries. The arrangement: species or system pig. The note with it: for shift of the concentration-response curve of endothelin-1: added 20 minutes prior to endothelin-1. The procedure: The coronary artery of pig was extracted, and a spiral preparation having a width of 1 mm and a length of 10 mm was prepared therefrom.
Endothelin-1 was added into the organ bath in a cumulatively increasing manner, whereby the influence of a compound of the present invention to the concentration-response curve for endothelin-1 was examined. The compound was added into the organ bath 20 minutes prior to the addition of endothelin-1.

Turning to `CC(C)C[C@H](NC(=O)N1CCCCCC1)C(=O)N[C@H](Cc1c[nH]c2ccccc12)C(=O)N[C@H](Cc1c[nH]c2ccccc12)C(=O)O` [Compound 50], in test [1], the “maximum response to endothelin-1” value was “did not affect the maximum response” and the “shift of the concentration-response curve for endothelin-1” value is listed as “remarkably shifted the concentration-response curves for endothelin-1 to the right”. Moreover, the “maximum response to endothelin-1 (perfusion pressure)” value in test [2] (1 μM compound) is “did not affect the maximum response”. Besides, the “shift of the concentration-response curve for endothelin-1 (perfusion pressure)” value in test [2] (1 μM compound in perfusate from 20 minutes prior to endothelin-1) is “moved the concentration-response curve for endothelin-1to the right”. For the same molecule, the inhibition at 1.1 µM in test [3] stood at 87%. In test [4] (2 μM compound), the “maximum response to endothelin-1” value is “did not affect the maximum response” and the “shift of the concentration-response curve of endothelin-1” value is on record as “remarkably shifted the concentration-response curves of endothelin-1 to the right”.

For the molecule `CC(C)C[C@H](NC(=O)N1CCCCCC1)C(=O)N[C@H](Cc1c[nH]c2ccccc12)C(=O)NCCC(=O)O` [Compound 93], in test [1], the “maximum response to endothelin-1” value is on record as “did not affect the maximum response” and the “shift of the concentration-response curve for endothelin-1” value is reported as “remarkably shifted the concentration-response curves for endothelin-1 to the right”. Further, the inhibition at 1.1 µM in test [3] (1.1 μM test compound (no mark)) is 78%. For the same molecule, in test [4] (6 μM compound), the “maximum response to endothelin-1” value is on record as “did not affect the maximum response” and the “shift of the concentration-response curve of endothelin-1” value is given as “remarkably shifted the concentration-response curves of endothelin-1 to the right”.

With `CC(C)C[C@H](NC(=O)OC(C)(C)C)C(=O)N[C@H](Cc1c[nH]c2ccccc12)C(=O)NN(CC(=O)O)CC(=O)O` [Compound 147], in test [3] (10 μM test compound (marked *)), the inhibition at 10 µM was found to be 57%.

For `CC(C)C[C@H](NC(=O)OC(C)(C)C)C(=O)N[C@H](Cc1c[nH]c2ccccc12)C(=O)NNCC(=O)O` [Compound 148], the inhibition at 10 µM in test [3] (10 μM test compound (marked *)) was determined as 82%.

For the molecule `CC(C)C[C@H](NC(=O)OC(C)(C)C)C(=O)N[C@H](Cc1c[nH]c2ccccc12)C(=O)NN(CC(=O)O)Cc1ccccc1` [Compound 149], in test [3] (10 μM test compound (marked *)), the inhibition at 10 µM is 58%.

Take `CC(C)C[C@H](NC(=O)NN1CCCC1)C(=O)N[C@H](Cc1c[nH]c2ccccc12)C(=O)NCCC(=O)O` [Compound 152]: the inhibition at 10 µM in test [3] (10 μM test compound (marked *)) is 58%.

For the molecule `CC(C)C[C@@H](C(=O)N[C@H](Cc1c[nH]c2ccccc12)C(=O)N[C@H](Cc1c[nH]c2ccccc12)C(=O)O)N1C(=O)CN(C2CCCC2)C1=O` [Compound 155], the inhibition at 1.1 µM in test [3] (1.1 μM test compound (no mark)) is 70%.

`CC(C)C[C@H](NC(=O)N1CCCCCC1)C(=O)N[C@H](Cc1cn(C=O)c2ccccc12)C(=O)N[C@H](Cc1c[nH]cn1)C(=O)O` [Compound 156]: the inhibition at 1.1 µM in test [3] (1.1 μM test compound (no mark)) turned out to be 86%.

For `CC(C)C[C@H](NC(=O)N1CCCCCC1)C(=O)N[C@H](Cc1c[nH]c2ccccc12)C(=O)NCCC(=O)NS(=O)(=O)c1ccccc1` [Compound 157], the inhibition at 1.1 µM in test [3] came to 69%.

Regarding `CC(C)C[C@H](NC(=O)N1CCCCCC1)C(=O)N[C@H](Cc1c[nH]c2ccccc12)C(=O)NCCC(=O)NS(C)(=O)=O` [Compound 158], the inhibition at 1.1 µM in test [3] (1.1 μM test compound (no mark)) worked out at 57%.

As for `CC(C)C[C@H](NC(=O)N1CCCCCC1)C(=O)N[C@H](Cc1c[nH]c2ccccc12)C(=O)N[C@H](C)CS(=O)(=O)O` [Compound 160], the inhibition at 1.1 µM in test [3] (1.1 μM test compound (no mark)) was 86%.

Regarding `CC(C)C[C@H](NC(=O)N1CCCCCC1)C(=O)N[C@H](Cc1cn(C=O)c2ccccc12)C(=O)NCCS(=O)(=O)O` [Compound 161], in test [3] (1.1 μM test compound (no mark)), the inhibition at 1.1 µM worked out at 84%.

Regarding `CC(C)C[C@H](NC(=O)N1CCCCCC1)C(=O)N[C@H](Cc1cn(C=O)c2ccccc12)C(=O)N[C@H](C)CS(=O)(=O)O` [Compound 162], the inhibition at 1.1 µM in test [3] (1.1 μM test compound (no mark)) was determined as 86%.

Consider `CC(C)C[C@H](NC(=O)N1CCCCCC1)C(=O)N[C@H](Cc1c[nH]c2ccccc12)C(=O)NN1CCC[C@@H]1C(=O)O` [Compound 163], for which the inhibition at 1.1 µM in test [3] (1.1 μM test compound (no mark)) turned out to be 76%.

On to `CC(C)C[C@H](NC(=O)N1CCCCCC1)C(=O)N[C@H](Cc1c[nH]c2ccccc12)C(=O)NN1CCC[C@H]1C(=O)O` [Compound 164], for which the inhibition at 1.1 µM in test [3] (1.1 μM test compound (no mark)) came to 71%.

As for `CC(C)C[C@H](NC(=O)N(CC(C)C)C1CCCC1)C(=O)N[C@H](Cc1c[nH]c2ccccc12)C(=O)N[C@H](Cc1c[nH]c2ccccc12)C(=O)O` [Compound 172], the inhibition at 1.1 µM in test [3] (1.1 μM test compound (no mark)) came out at 87%.

`CC(C)C[C@H](NC(=O)N1CCCC1(C)C)C(=O)N[C@H](Cc1c[nH]c2ccccc12)C(=O)N[C@H](Cc1c[nH]c2ccccc12)C(=O)O` [Compound 173]: in test [3] (1.1 μM test compound (no mark)), the inhibition at 1.1 µM turned out to be 84%.

In the case of `CC(C)C[C@H](NC(=O)N(C)C(C)(C)C)C(=O)N[C@H](Cc1cn(C=O)c2ccccc12)C(=O)N[C@H](Cc1c[nH]c2ccccc12)C(=O)O` [Compound 174], the inhibition at 1.1 µM in test [3] (1.1 μM test compound (no mark)) is 81%.

Regarding `COP(=O)(OC)n1cc(C[C@@H](NC(=O)[C@H](CC(C)C)NC(=O)N2CCCCCC2)C(=O)N[C@H](Cc2c[nH]c3ccccc23)C(=O)O)c2ccccc21` [Compound 191], the inhibition at 10 µM in test [3] amounted to 74%.

For `CC(C)C[C@H](NC(=O)C1CCCCCC1)C(=O)N[C@H](Cc1c[nH]c2ccccc12)C(=O)N[C@H](Cc1c[nH]c2ccccc12)C(=O)O` [Compound 200], the inhibition at 1.1 µM in test [3] (1.1 μM test compound (no mark)) was determined as 87%.

With `CC(C)C[C@H](OC(=O)C1CCCCCC1)C(=O)N[C@H](Cc1c[nH]c2ccccc12)C(=O)N[C@H](Cc1c[nH]c2ccccc12)C(=O)O` [Compound 201], in test [3], the inhibition at 1.1 µM came out at 69%.
